Source: article doi:10.1101/2024.04.24.590935, “Measuring PETase enzyme kinetics by single-molecule microscopy” (bioRxiv, 2024)

Experiments:
[1] = target: T1, PETase (wild-type PETase, IsPETase) (Pseudideonella sakaiensis, UniProt A0A0K8P6T7); assay: single-molecule TIRF of Qdot655-labelled PETase on PET film, competition by pNPA; format: binding; conditions: 4 mM pNPA; competitive with PET; also model soluble substrate; 50 mM sodium phosphate, 100 mM NaCl, pH 7.4, 22 °C
T1 construct: gene ISF6_4831
T1 sequence (A0A0K8P6T7 28-290): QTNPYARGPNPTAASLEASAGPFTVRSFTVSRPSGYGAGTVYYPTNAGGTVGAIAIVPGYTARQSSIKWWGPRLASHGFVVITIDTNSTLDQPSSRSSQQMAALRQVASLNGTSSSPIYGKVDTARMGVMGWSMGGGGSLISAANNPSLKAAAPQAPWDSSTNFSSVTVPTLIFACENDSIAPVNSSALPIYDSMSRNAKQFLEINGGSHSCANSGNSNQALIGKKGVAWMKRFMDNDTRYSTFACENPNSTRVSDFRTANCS

[2] = target: T2, PETase (wild-type PETase, IsPETase) (Pseudideonella sakaiensis, UniProt A0A0K8P6T7, W159H/S238F); assay: as above; format: binding; conditions: 4 mM pNPA; competitive with PET; also model soluble substrate; 50 mM sodium phosphate, 100 mM NaCl, pH 7.4, 22 °C
T2 construct: gene ISF6_4831
T2 sequence (A0A0K8P6T7 28-290 W159H/S238F): as the sequence (A0A0K8P6T7 28-290) above, with W132H, S211F counted along it

Structure (SMILES): CC(=O)Oc1ccc([N+](=O)[O-])cc1 [4-Nitrophenyl acetate]
- single-molecule TIRF of Qdot655-labelled PETase on PET film, competition by pNPA [1]: pNPA reduced the binding duration of wild-type PETase and the hyperactive variant
- single-molecule TIRF of Qdot655-labelled PETase on PET film, competition by pNPA [2]: pNPA strongly diminished the landing rate of the wild-type and hyperactive mutant
